US20110039333A1, “DEFINED CONDITIONS FOR HUMAN EMBRYONIC STEM CELL CULTURE AND PASSAGE” (UNIVERSITY OF SOUTHERN CALIFORNIA, priority 2009, published 2011)

Key:
hESC [1] = assay: Xeno-free, feeder-free hESC culture (minimal medium development); type: cell-based, human; conditions: for maintenance of hESCs, Wnt ligand replaced by GSK-3 inhibitor: ID-8 containing medium
Experimental: (§1) For xeno-free, feeder-free culture, the cells were passaged into 2 μg/cm^2 human Fibronectin (Sigma), 10-20 μg/cm^2 human Laminin (Sigma) and 10 μg/cm^2 human Vitronectin (Invitrogen)-coated culture dishes and cultured in DMEM/F-12 supplement with L-glutamine, a non-essential amino acid, ITS, 20-25 ng/ml Wnt3a and 500 nM ID-8, and with or without 4 ng/ml FGF2. The culture medium was changed daily. Some of colonies became detached from the edge region 5 to 7 days after culturing, and then cells were treated with 0.5 mg/ml GRGDTP peptides (AnaSpec) or 1 μg/ml Echistatin (Sigma) and incubated at 37° C. for 15-45 minutes until almost all of the colony starts to detach from the edge region. The colonies were detached and partially dissociated into clumps by gentle pipetting, and then the clumps were washed with culture medium, collected by centrifugation and seeded on new dishes as 1 to 2 split ratio.
The development of a xeno-free, feeder-free hESC culture system using ID-8 and Wnt activation was investigated. After extensive investigation, the inventors determined that the minimal media required to maintain hESC proliferation and pluripotency consisted of DMEM/F-12 with bFGF (4 ng/ml), Wnt3a (25 ng/ml), ID-8 (0.5 μM) and Insulin-Transferrin-Selenium (ITS). […] The inventors next sought to replace the Wnt ligand with several small molecule GSK-3 inhibitors, BIO (11), CHIR99021 (22) and Kenpaullone (23) in ID-8 containing medium with or without bFGF. […] However, in contrast to Wnt ligand containing medium, hESCs became unstable after few passages, subsequently stabilized and maintained pluripotent cores were surrounded with spontaneously differentiated cells (FIG. 5). Under these conditions, manually selection of undifferentiated hESC colonies from the surrounding cells was required at every passage to maintain pluripotent cultures.
(§2) Initially, cells were maintained on Matrigel, a complex animal derived ECM. However, it would be advantageous to use a defined xeno-component-free ECM. […] Because of the extremely low level of protein in these cultures (i.e. no albumin and matrigel), the hESCs are extremely sensitive to damage caused by the dissociation enzymes normally used for passaging. […] To develop a compatible passaging process, the inventors investigated several integrin antagonists.

HES2 cells = assay: Clonal proliferation assay, HES2 cells in MEF-CM; type: cell-based, human; conditions: for effect on hESC survival, self-renewal and differentiation: supplement in MEF-CM, colony morphology
Experimental: The clonal proliferation assay was described previously. Briefly, the hES cells in feeder-free culture were dissociated completely with 0.05% trypsin-EDTA.(Invitrogen), and are seeded at 10^4 cells/well in Matrigel-coated 6-well culture plates and cultured in MEF-conditioned medium. Various concentration of Wnt3a (purified in our laboratory or purchased from Peprotech), IQ-1, ID-8 and/or ICG-001 (all three chemicals were synthesized in our laboratory), were supplemented into the culture media at the onset of seeding, then continuously until the end of culturing. For all assays, the cell and colony morphology were examined under microscope, and the replating efficiency was examined by counting the number of colonies after 7 days of culture.
For quantitative PCR analysis, total RNA was isolated from hESCs cultured in feeder-free condition with or without Wnt3a and Id-8 using RNeasy micro kit (Qiagen). RT was performed with Omniscript (Qiagen) and quantitative RT-PCR was then performed, using each gene-specific primer/probe mix (TaqMan Gene Expression Assays), TaqMan 2× Master Mix, and ABI PRISM 7900 Sequence Detection system (Applied Biosystems, CA) according manufacture's protocol. The PCR data was analyzed by delta/delta OT method and normalized with PPIA expression.
The hESC colonies were fixed with 4% paraformaldehyde, and alkaline phosphatase (ALP) activity was determined with a Vector Blue Alkaline Phosphatase Substrate Kit (Vector Laboratories, CA). Immunostaining was carried out with the following primary antibodies: TRA-1-60 and TRA-1-80 (Santa Cruz Biotechnology, CA), anti-stage specific embryonic antigen (SSEA)-3 and -4 (Developmental Studies Hybridoma Bank at the University of Iowa), anti-OCT-3 (clone C-10, Santa Cruz Biotechnology, CA), or goat anti-Nanog (R&D systems, MN). Then, samples were incubated with Alexa Fluor 488- or 594-conjugated (Molecular Probes, NY), then detected with indirect immunofluorscence microscopy.
The effects of canonical Wnt ligand, Wnt3a and several small molecule Wnt signaling modulators in a clonal proliferation assay were investigated first (9) (FIG. 3A). When HES2 cells (2) were dissociated into single cells and seeded on Matrigel-coated plates in mouse embryonic fibroblast-conditioned medium (MEF-CM)(20), the colony forming efficiency was ˜0.6% (replating efficiency: colony number/seeded cell number). Supplementation with Wnt3a enhanced colony formation (˜1% at 100 ng/ml). The colonies were larger and consisted of more cells. […] ID-8, which was identified in the same screen as IQ-1 (21), also enhances the β-catenin/CBP association and increased hESC survival (˜1.1% at 0.5 μM). […] To examine the scope of this effect in hESC, clonal proliferation assays were performed with the additional hESC lines, HES3 (2) and H9 (1) (FIG. 3H).

hESC [2] = assay: Passaging by integrin antagonists (colony detachment); type: cell-based, human; conditions: xeno-free medium, FLV-coated dishes
Experimental: as §1, §2

DYRK2 = molecular target: T1, DYRK2 (Homo sapiens, UniProt Q92630); assay: ID-8 affinity chromatography / pull-down with biotinylated ID-8, competition by free ID-8; type: binding; conditions: cell lysates; competition with free ID-8
T1 construct: endogenous in cells
T1 sequence (Q92630 1-601): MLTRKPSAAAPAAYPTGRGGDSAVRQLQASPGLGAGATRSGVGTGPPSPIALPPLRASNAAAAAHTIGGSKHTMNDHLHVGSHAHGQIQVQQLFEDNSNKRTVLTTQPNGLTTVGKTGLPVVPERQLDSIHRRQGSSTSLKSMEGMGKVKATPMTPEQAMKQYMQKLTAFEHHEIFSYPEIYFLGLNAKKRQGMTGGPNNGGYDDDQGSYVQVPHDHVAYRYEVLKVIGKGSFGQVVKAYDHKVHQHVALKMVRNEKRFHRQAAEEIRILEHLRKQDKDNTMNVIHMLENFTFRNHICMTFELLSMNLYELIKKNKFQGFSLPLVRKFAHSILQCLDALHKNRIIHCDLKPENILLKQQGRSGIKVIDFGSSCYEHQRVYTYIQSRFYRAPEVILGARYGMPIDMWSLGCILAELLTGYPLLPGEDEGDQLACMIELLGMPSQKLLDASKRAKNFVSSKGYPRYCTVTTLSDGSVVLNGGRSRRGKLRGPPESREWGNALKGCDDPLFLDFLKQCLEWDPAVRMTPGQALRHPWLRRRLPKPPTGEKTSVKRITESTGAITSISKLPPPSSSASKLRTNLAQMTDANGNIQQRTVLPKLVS
Experimental: (§3) The cells were washed twice with 5 mL of ice-old PBS and scraped using 1 mL of PBS containing protease inhibitor cocktail (Calbiochem 539137). The cells were collected by centrifugation and the cell pellet was frozen and stocked with liquid nitrogen. Total 2 g of cell pellet was thawed on ice and then suspended in 20 mL of chilled M-Per (Pierce 78501) buffer containing 1 mM DTT and the protease inhibitor cocktail. The cell suspension was mixed and lysed on a nutator (BD Diagnostics) for 30 minutes at 4° C. The lysate was then centrifuged at 10,000 rpm for 30 minutes at 4° C., and the supernatant was divided into two equal aliquots in 50 mL centrifuge tubes. […]
(§4) After pre-treatment with free competitor ID-8 or DMSO control, the streptayidin-sepharose bound with biotinylated ID-8 was applied on the lysates. […] The specific bands lost by competitor free ID-8 was analyzed by LC/MS (LTQ-XL, Thermo Scientific).
(§5) The elution was also analyzed by or western blotting with specific antibodies against DYRK1a (Cell Signaling 2771), DYRK2 (Abeam ab37912), DYRK3 (Santa Cruz sc-66868), DYRK4 (Abeam ab37911), or HIP2K (Santa Cruz sc-100383).
(§6) ID-8 (FIG. 4A) can enhance β-catenin/CBP-mediated transcription, however, its direct molecular target(s) remained unidentified. […] To confirm this, the inventors designed miRNA to target the DYRK family and evaluated them after transfection by immunoblotting (FIG. 4D-E). […]

DYRK4 = molecular target: T2, DYRK4 (Homo sapiens, UniProt Q9NR20); assay: ID-8 pull-down, western blotting with DYRK family antibodies; type: binding; conditions: western blotting of precipitated proteins
T2 construct: endogenous in cells
T2 sequence (Q9NR20 1-520): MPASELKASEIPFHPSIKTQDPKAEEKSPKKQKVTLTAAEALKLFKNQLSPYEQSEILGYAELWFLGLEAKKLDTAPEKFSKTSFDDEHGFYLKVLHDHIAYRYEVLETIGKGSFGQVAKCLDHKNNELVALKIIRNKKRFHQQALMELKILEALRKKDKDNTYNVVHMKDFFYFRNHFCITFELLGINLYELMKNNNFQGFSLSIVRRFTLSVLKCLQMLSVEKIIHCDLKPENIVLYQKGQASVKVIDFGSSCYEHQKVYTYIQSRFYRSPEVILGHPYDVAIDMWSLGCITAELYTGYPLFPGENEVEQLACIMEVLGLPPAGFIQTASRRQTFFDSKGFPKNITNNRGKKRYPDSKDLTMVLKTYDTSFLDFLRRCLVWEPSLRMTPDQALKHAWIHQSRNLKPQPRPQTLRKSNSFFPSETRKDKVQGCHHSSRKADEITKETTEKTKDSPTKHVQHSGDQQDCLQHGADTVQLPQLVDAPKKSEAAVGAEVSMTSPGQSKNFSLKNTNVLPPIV
Experimental: as §3, §4, §5, §6

Molecule: bFGF: basic fibroblast growth factor, recombinant FGF2 (Peprotech)
- hESC morphology and proliferation (hESC [1]; bFGF removed from minimal medium): proliferation was significantly diminished

Molecule: CC(=O)c1ccc(NN=C(C(N)=O)C2=NC(C)(C)Cc3ccccc32)cc1 [IQ-1]
- effect on Wnt-induced differentiation (HES2 cells; in presence of Wnt3a, MEF-CM): somewhat prevented Wnt-induced differentiation
- effect on hESC survival, self-renewal and differentiation (HES2 cells): did not significantly affect hESC self-renewal by itself

Molecule: O=C1[C@H](Cc2ccc(O)cc2)N2C(=O)CCN(C(=O)NCc3ccccc3)[C@H]2CN1Cc1cccc2ccccc12 [ICG-001]
- effect on hESC survival, self-renewal and differentiation (HES2 cells): strongly induced cell differentiation and death

Molecule: Echistatin
- colony detachment and passage of hESC (hESC [2]): effectively caused colony detachment

Molecule: Cc1c[nH]c(-c2cnc(NCCNc3ccc(C#N)cn3)nc2-c2ccc(Cl)cc2Cl)n1 [CHIR90021]
- maintenance of hESCs, Wnt ligand replaced by GSK-3 inhibitor (hESC [1]; 0.2 μM plus bFGF): could maintain hESCs

Molecule: O=C1Cc2c([nH]c3ccc(Br)cc23)-c2ccccc2N1 [Kenpaullone]
- maintenance of hESCs, Wnt ligand replaced by GSK-3 inhibitor (hESC [1]; 0.5 μM plus bFGF): could maintain hESCs
- maintenance of hESCs, Wnt ligand replaced by GSK-3 inhibitor (hESC [1]; 1.0 μM plus bFGF): could maintain hESCs
- maintenance of hESCs, Wnt ligand replaced by GSK-3 inhibitor (hESC [1]; 1.0 μM without bFGF): could maintain hESCs

Molecule: COc1ccc(-n2c(C)c([N+](=O)[O-])c3ccc(O)cc32)cc1 [ID-8]
- replating efficiency (colony number/seeded cell number), hESC survival (HES2 cells; ID-8 at 0.5 μM, single cells on Matrigel in MEF-CM, control ~0.6%): ~1.1%
- binding of DYRK2 to ID-8 affinity column (DYRK2): competed away by free ID-8
- DYRK4 in proteins precipitated with biotinylated ID-8 (DYRK4): identified not only DYRK2 but also DYRK4
- maintenance of hESC colonies (hESC [1]; minimal medium (DMEM/F-12, bFGF, Wnt3a, ITS) without ID-8): no colonies were maintained

B1: Wnt3a: canonical Wnt ligand protein, purified in the laboratory or purchased from Peprotech (protein, UniProt P56704 19-352, looked up)
Protein Wnt-3a: SYPIWWSLAVGPQYSSLGSQPILCASIPGLVPKQLRFCRNYVEIMPSVAEGIKIGIQECQHQFRGRRWNCTTVHDSLAIFGPVLDKATRESAFVHAIASAGVAFAVTRSCAEGTAAICGCSSRHQGSPGKGWKWGGCSEDIEFGGMVSREFADARENRPDARSAMNRHNNEAGRQAIASHMHLKCKCHGLSGSCEVKTCWWSQPDFRAIGDFLKDKYDSASEMVVEKHRESRGWVETLRPRYTYFKVPTERDLVYYEASPNFCEPNPETGSFGTRDRTCNVSSHGIDGCDLLCCGRGHNARAERRREKCRCVFHWCCYVSCQECTRVYDVHTCK
- replating efficiency (colony number/seeded cell number) (HES2 cells; Wnt3a at 100 ng/ml, single cells on Matrigel in MEF-CM, control ~0.6%): ~1%
- effect on hESC survival, self-renewal and differentiation (HES2 cells): enhances hESC survival and proliferation but also induces differentiation
